Like-named read-outs stand apart in the source and are kept apart here.
Legend:
[1] = target: human TYK2 (JH2domain-pseudokinase) (Homo sapiens (Human), UniProt P29597); test: TYK2 JH2 Domain Binding Assay (KINOMEscan); settings: 11-point 3-fold dilution, top concentration 30,000 nM, duplicate; read-out: hTYK2_JH2_Binding (Kd; nM)
Outline: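 KINOMEscan competition binding: HEK293-expressed NFkB-fused TYK2 JH2 (G556–D888), DNA-tagged, against immobilized ligand beads, 1 h shaking at room temperature, 0.9% DMSO. Bound kinase quantified by qPCR.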

[2] = target: TYK2 (Homo sapiens (Human), UniProt P29597); test: TYK2 Radioactive Kinase Assay; format: biochemical; settings: read-out: TYK2 (% Inhibition at 10 μM)
Chain of TYK2 (P29597 whole entry): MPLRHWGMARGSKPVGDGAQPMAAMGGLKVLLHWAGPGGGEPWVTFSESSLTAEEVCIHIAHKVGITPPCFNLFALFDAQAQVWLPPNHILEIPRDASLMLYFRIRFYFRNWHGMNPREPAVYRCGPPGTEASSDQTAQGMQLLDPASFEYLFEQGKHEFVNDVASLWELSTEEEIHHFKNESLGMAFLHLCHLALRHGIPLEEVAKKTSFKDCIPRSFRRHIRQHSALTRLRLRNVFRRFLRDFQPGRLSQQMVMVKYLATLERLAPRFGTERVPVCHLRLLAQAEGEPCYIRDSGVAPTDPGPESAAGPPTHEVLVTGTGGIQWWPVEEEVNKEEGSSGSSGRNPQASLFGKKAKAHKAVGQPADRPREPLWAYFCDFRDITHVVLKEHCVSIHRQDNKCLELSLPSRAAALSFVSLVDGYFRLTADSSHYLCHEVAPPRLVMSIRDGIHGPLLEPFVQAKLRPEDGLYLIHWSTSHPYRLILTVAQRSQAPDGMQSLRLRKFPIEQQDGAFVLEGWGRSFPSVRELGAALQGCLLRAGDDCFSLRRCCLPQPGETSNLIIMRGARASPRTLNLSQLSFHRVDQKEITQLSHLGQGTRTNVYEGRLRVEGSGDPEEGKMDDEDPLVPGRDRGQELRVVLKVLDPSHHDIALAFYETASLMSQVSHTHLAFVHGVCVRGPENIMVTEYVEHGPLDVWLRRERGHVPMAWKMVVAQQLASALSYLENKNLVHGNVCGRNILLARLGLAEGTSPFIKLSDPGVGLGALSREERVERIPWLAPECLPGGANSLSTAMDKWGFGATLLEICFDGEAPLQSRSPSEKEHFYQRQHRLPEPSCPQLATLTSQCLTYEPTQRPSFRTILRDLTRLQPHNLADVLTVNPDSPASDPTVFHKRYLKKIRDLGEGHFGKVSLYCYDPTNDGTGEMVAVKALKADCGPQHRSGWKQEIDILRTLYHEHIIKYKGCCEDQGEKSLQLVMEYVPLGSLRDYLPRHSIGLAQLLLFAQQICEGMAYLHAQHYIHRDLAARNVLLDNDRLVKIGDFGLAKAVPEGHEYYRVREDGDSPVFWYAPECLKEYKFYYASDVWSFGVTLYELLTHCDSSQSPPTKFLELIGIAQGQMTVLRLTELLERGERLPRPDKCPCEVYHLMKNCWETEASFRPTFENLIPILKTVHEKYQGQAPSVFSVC

[3] = target: JAK2 (Homo sapiens (Human), UniProt O60674); test: JAK2 Radioactive Kinase Assay; format: biochemical; settings: for inhibition at 10 µM: read-out: JAK2 (% Inhibition at 10 μM)
Chain of JAK2 (O60674 whole entry): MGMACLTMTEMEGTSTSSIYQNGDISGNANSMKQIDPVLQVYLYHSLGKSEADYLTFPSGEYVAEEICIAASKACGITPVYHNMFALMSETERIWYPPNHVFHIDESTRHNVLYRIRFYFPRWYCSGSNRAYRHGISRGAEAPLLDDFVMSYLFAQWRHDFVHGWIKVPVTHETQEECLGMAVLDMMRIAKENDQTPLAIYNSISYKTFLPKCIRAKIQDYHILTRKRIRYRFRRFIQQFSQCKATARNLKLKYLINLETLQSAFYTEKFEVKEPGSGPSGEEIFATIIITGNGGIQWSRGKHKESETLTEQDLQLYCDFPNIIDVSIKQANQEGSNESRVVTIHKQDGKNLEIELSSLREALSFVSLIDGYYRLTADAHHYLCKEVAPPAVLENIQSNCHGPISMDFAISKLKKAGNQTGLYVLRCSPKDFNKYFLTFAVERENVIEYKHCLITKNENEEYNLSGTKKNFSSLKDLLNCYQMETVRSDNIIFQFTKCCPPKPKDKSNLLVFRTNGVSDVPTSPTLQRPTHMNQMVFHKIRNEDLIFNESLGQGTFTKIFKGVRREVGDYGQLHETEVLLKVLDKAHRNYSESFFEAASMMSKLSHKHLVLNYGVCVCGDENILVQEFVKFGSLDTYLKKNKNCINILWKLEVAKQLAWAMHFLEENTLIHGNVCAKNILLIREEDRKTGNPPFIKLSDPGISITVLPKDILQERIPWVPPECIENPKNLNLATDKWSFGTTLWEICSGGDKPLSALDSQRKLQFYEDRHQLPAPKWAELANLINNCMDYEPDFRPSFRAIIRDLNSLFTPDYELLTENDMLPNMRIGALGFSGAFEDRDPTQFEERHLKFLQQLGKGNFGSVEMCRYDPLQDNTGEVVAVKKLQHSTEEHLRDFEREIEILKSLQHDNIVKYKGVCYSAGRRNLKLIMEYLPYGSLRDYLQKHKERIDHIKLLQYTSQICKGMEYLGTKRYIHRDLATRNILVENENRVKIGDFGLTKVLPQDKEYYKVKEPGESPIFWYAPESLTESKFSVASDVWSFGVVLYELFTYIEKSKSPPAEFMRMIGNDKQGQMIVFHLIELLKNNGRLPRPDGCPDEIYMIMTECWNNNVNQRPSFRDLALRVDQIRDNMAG
Experimental: Peptide substrate, [[…]], (20 μM) was prepared in reaction buffer (20 mM Hepes pH 7.5, 10 mM MgCl2, 1 mM EGTA, 0.02% Brij35, 0.02 mg/mL BSA, 0.1 mM […], 2 mM DTT, 1% DMSO. TYK2 (Invitrogen) kinase was added, followed by compounds in DMSO. 33PATP was added to initiate the reaction in ATP at […]. Kinase reaction was incubated for 120 min at room temp and reactions were spotted onto P^81 ion exchange paper (Whatman #3698-915), and then washed extensively in 0.75% phosphoric acid, prior to reading the radioactivity counts. For JAK2 (Invitrogen) kinase assay the peptide substrate poly[Glu:Tyr] (4:1), 0.2 mg/mL was used, in the reaction carried out the same as for TYK2.

[4] = tested on: IL-12 induced STAT4 phosphorlyation mediated by TYK2/JAK2; test: IL-12 Induced pSTAT4 in Human PBMC; format: cell-based; settings: 1.7 ng/mL IL-12 for 30 minutes
Outline: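 Thawed human PBMC pre-incubated with compound 1 hr at 37° C (0.1% DMSO final), then stimulated 30 minutes with IL-12 at 1.7 ng/mL final. pSTAT4 and total STAT4 measured in cell lysates with MSD reagents.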

[5] = compound at 10 μM, peptide substrate […]
[6] = compound at 10 μM, substrate poly[Glu:Tyr] (4:1)

Chain of human TYK2 (JH2domain-pseudokinase) (P29597 556-888): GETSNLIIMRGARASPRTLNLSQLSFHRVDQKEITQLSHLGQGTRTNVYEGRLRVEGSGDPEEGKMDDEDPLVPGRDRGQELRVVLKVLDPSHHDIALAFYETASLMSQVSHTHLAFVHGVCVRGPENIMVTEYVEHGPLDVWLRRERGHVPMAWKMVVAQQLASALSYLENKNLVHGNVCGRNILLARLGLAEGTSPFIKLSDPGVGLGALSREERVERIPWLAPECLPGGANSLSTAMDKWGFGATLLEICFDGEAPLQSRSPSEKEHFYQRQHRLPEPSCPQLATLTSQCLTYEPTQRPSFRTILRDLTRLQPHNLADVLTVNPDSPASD

Structure (SMILES) | Kd [1] [nM] | inhibition at 10 µM [2, 5] [%] | inhibition at 10 µM [3, 6] [%] | other results
CNc1cc(-c2cn(C3CCOCC3)c3ncc(F)cc23)nc2c(C(=O)N[C@H]3CC[C@@H]3O)cnn12 [Compound I-18, 5-(5-Fluoro-1-(tetrahydro-2H-pyran-4-yl)-1H-pyrrolo[2,3-b]pyridin-3-yl)-N-((1S,2S)-2-hydroxycyclobutyl)-7-(methylamino)pyrazolo[1,5-a]pyrimidine-3-carboxamide] | < 0.2 | < 50 | < 50 | 
CNc1cc(Nc2cccn(C3CC(F)(F)C3)c2=O)nc2c(C(=O)N[C@H]3COC[C@H]3O)cnn12 [Compound I-58, 5-((1-(3,3-Difluorocyclobutyl)-2-oxo-1,2-dihydropyridin-3-yl)amino)-N-((3S,4S)-4-hydroxytetrahydrofuran-3-yl)-7-(methylamino)pyrazolo[1,5-a]pyrimidine-3-carboxamide] | 0.2 to 1 | < 50 | < 50 | 
CNc1cc(Nc2cccn(C3CC(F)(F)C3)c2=O)nc2c(C(=O)N[C@@H]3COC[C@@H]3O)cnn12 [Compound I-59, 5-((1-(3,3-Difluorocyclobutyl)-2-oxo-1,2-dihydropyridin-3-yl)amino)-N-((3R,4R)-4-hydroxytetrahydrofuran-3-yl)-7-(methylamino)pyrazolo[1,5-a]pyrimidine-3-carboxamide] | 1 to 10 | < 50 | < 50 | 
CNc1cc(Nc2cccn(C3CCC[C@@](C)(O)C3)c2=O)nc2c(C(=O)N[C@@H]3C[C@@H]3F)cnn12 (stereo partly drawn) [Compound I-6, N-((1R,2S)-2-Fluorocyclopropyl)-5-((1-(3-hydroxy-3-methylcyclohexyl)-2-oxo-1,2-dihydropyridin-3-yl)amino)-7-(methylamino)pyrazol[1,5-a]pyrimidine-3-carboxamide] |  | < 50 | < 50 | 
CNc1cc(Nc2cccn([C@H]3CC[C@H](OC)CC3)c2=O)nc2c(C(=O)N[C@H]3CC[C@H](OC)C3)cnn12 [Compound I-70, 5-((1-((1 r,4S)-4-Methoxycyclohexyl)-2-oxo-1,2-dihydropyridin-3-yl)amino)-N-((1S,3S)-3-methoxycyclopentyl)-7-(methylamino)pyrazolo[1,5-a]pyrimidine-3-carboxamide] |  |  |  | JAK2 (% Inhibition at 10 μM) [3, 6]: A (percent inhibition at 10 μM lower than 50)
CNc1cc(Nc2cccn(C3CC(F)(F)C3)c2=O)nc2c(C(=O)NC3C[C@H]3OC)cnn12 (stereo partly drawn) [Compound I-33, 5-((1-(3,3-Difluorocyclobutyl)-2-oxo-1,2-dihydropyridin-3-yl)amino)-N-((trans-1,2)-2-methoxycyclopropyl)-7-(methylamino)pyrazolo[1,5-a]pyrimidine-3-carboxamide] |  | < 50 | < 50 | IC50 ([4]; 0.5 h): < 0.1 µM
CNc1cc(Nc2cccn([C@H]3C[C@H](F)C3)c2=O)nc2c(C(=O)NC3CC[C@@H]3OC)cnn12 (stereo partly drawn) [Compound I-46, 5-((1-((1r,3S)-3-Fluorocyclobutyl)-2-oxo-1,2-dihydropyridin-3-yl)amino)-N-((trans-1,2)-2-methoxycyclobutyl)-7-(methylamino)pyrazolo[1,5-a]pyrimidine-3-carboxamide] |  |  |  | inhibition at 10 µM [2]: < 50%; inhibition at 10 µM [3]: < 50%; IC50 ([4]; 0.5 h): < 0.1 µM
CNc1cc(Nc2cccn([C@H]3CC[C@H](OC)CC3)c2=O)nc2c(C(=O)N[C@@H]3CC[C@@H](OC)C3)cnn12 [Compound I-69, 5-((1-((1r,4R)-4-Methoxycyclohexyl)-2-oxo-1,2-dihydropyridin-3-yl)amino)-N-((1R,3R)-3-methoxycyclopentyl)-7-(methylamino)pyrazolo[1,5-a]pyrimidine-3-carboxamide] |  |  |  | JAK2 (% Inhibition at 10 μM) [3, 6]: A (percent inhibition at 10 μM lower than 50)
CNc1cc(Nc2cccn([C@H]3C[C@H](F)C3)c2=O)nc2c(C(=O)NC3CC[C@@H](OC)C3)cnn12 (mixture of isomers) [Compound I-66, 5-((1-((1r,3R)-3-Fluorocyclobutyl)-2-oxo-1,2-dihydropyridin-3-yl)amino)-N-(3-methoxycyclopentyl)-7-(methylamino)pyrazolo[1,5-a]pyrimidine-3-carboxamide] |  | < 50 | < 50 | 
CNc1cc(Nc2cccn([C@H]3C[C@H](F)C3)c2=O)nc2c(C(=O)N[C@@H]3C[C@@H]3F)cnn12 [Compound I-7, 5-((1-((1r,3R)-3-Fluorocyclobutyl)-2-oxo-1,2-dihydropyridin-3-yl)amino)-N-((1R,2S)-2-fluorocyclopropyl)-7-(methylamino)pyrazolo[1,5-a]pyrimidine-3-carboxamide] |  | < 50 | < 50 | IC50 ([4]; 0.5 h): < 0.1 µM
CNc1cc(Nc2cccn(C3CC(F)(F)C3)c2=O)nc2c(C(=O)N[C@H]3CCC[C@H](O)C3)cnn12 [Compound I-63, 5-((1-(3,3-Difluorocyclobutyl)-2-oxo-1,2-dihydropyridin-3-yl)amino)-N-((1S,3S)-3-hydroxycyclohexyl)-7-(methylamino)pyrazolo[1,5-a]pyrimidine-3-carboxamide] |  | < 50 | < 50 | 
CNc1cc(Nc2cccn(C3CC(F)(F)C3)c2=O)nc2c(C(=O)N[C@@H]3CCC[C@@H](O)C3)cnn12 [Compound I-62, 5-((1-(3,3-Difluorocyclobutyl)-2-oxo-1,2-dihydropyridin-3-yl)amino)-N-((1R,3R)-3-hydroxycyclohexyl)-7-(methylamino)pyrazolo[1,5-a]pyrimidine-3-carboxamide] |  | < 50 | < 50 | 
O=C(NC1CCC1(F)F)c1cnn2c3c(c(-c4cn(C5COC5)c5ncccc45)nc12)OCCN3 (centres unmarked) [Compound I-771, N-(2,2-Difluorocyclobutyl)-5-(1-(oxetan-3-yl)-1H-pyrrolo[2,3-b]pyridin-3-yl)-2,3-dihydro-1H-pyrazolo[5′,1′:2,3]pyrimido[5,4-b][1,4]oxazine-7-carboxamide] | < 0.2 |  |  | IC50 ([4]; 0.5 h): < 0.1 µM
CNc1cc(Nc2cccn(C3COC3)c2=O)nc2c(C(=O)N[C@@H]3CC[C@@H]3F)cnn12 [Compound I-162] | < 0.2 |  |  | IC50 [4]: < 0.1 µM
CNc1cc(-c2cnc3n(CC(=O)N4CC5(COC5)C4)cccc2-3)nc2c(C(=O)N[C@H]3CC[C@@H]3OC)cnn12 [Compound I-1012] | < 0.2 |  |  | IC50 [4]: > 1 µM
O=C(N[C@@H]1CCC1(F)F)c1cnn2c3c(c(Nc4cccn([C@H]5[C@@H]6COC[C@@H]65)c4=O)nc12)OCCN3 [Compound I-769] | < 0.2 |  |  | IC50 [4]: < 0.1 µM
CNc1cc(Nc2cccn([C@H]3[C@@H]4COC[C@@H]43)c2=O)nc2c(C(=O)NC3C[C@H]3OC)cnn12 (mixture of isomers) [Compound I-24, 5-((1-((1R,5S,6r)-3-Oxabicyclo[3.1.0]hexan-6-yl)-2-oxo-1,2-dihydropyridin-3-yl)amino)-N-(2-methoxycyclopropyl)-7-(methylamino)pyrazolo[1,5-a]pyrimidine-3-carboxamide] |  | < 50 | < 50 | IC50 ([4]; 0.5 h): < 0.1 µM
CNc1cc(Nc2cccn(-c3ccccn3)c2=O)nc2c(C(=O)N[C@@H]3CC[C@@H](OC)C3)cnn12 [Compound I-67, N-((1R,3R)-3-Methoxycyclopentyl)-7-(methylamino)-5-((2-oxo-2H-[1,2′-bipyridin]-3-yl)amino)pyrazolo[1,5-a]pyrimidine-3-carboxamide] |  | < 50 | < 50 | 
